Reference: patent EP0073505B1, “Benzo-heterocycles” (priority 1981, dated 1983)

System: Meerschweinchen
Experiment: Heart rate increase in the guinea pig, i.v.
Assay type: in vivo
Conditions: selectivity Broncholyse vs. Herzfrequenzsteigerung
Excerpt: Für die pharmakologischen Prüfungen werden die üblichen Testmethoden und Versuchstiere oder Organe verwendet. Pharmakologisch sind die erfindungsgemässen Verbindungen gegenüber Handelsprodukten der gleichen Indikation zum Teil sehr deutlich unterschieden. Neben einer guten Wirkungsdauer zeigt sich z.B. eine besonders deutliche Selektivität im Verhältnis Broncholyse zu Herzfrequenzsteigerung. So ist z. […] Günstig sind im allgemeinen auch die Resorptionsverhältnisse. So ist der Resorptionsquotient [formula] z.B. für die Verbindung 7 der Tabelle 3 nur 1,1, so dass die orale Wirkung praktisch ebenso gross ist wie die intravenöse. Die LD50-Werte liegen, z.B. an der Maus, so weit über der therapeutischen Dosis, dass eine günstige therapeutische Breite gegeben ist.

## CC[C@H](NC(C)C)[C@H](O)c1ccc(O)c2c1OCC(=O)N2 (relative stereo) [Beispiel 1]
  ED50 i.v. der Herzfrequenzsteigerung relative to ED50 i.v. der Broncholyse: mehr als zehnmal so gross
